Reference: ChEMBL document CHEMBL6120948, “Design, Synthesis, and Biological Evaluation of Lysine-Stapled Peptide Inhibitors of p53-MDM2/MDMX Interactions with Potent Antitumor Activity In Vivo” (J Med Chem, 2024)

Legend:
MCF7 = assay: Antiproliferative activity against human MCF7 cells expressing wild-type p53 incubated for 72 hrs by MTT assay; assay type: functional, cell-based; settings: MCF7, 72 h
[1] = Induction of alpha-helical conformation in phosphate buffer at pH 7 at 100 uM by CD analysis; assay type: physicochemical; settings: pH 7, 100 µM
[2] = Antiproliferative activity against human U-87 MG cells expressing wild-type p53 incubated for 72 hrs by MTT assay; assay type: functional, cell-based, U-87MG ATCC
[3] = Drug distribution in cytoplasm of human HCT-116 cells at 40 uM incubated for 4 hrs by Hoechst 33342/DiD dye based confocal microscopy; assay type: ADME, subcellular; settings: hct-116, 4 h
[4] = Drug distribution in nucleus of human HCT-116 cells at 40 uM incubated for 4 hrs by Hoechst 33342/DiD dye based confocal microscopy; assay type: ADME, subcellular; settings: hct-116, 4 h

| IC50 (MCF7) [µM] | Activity [1] [%] | Drug uptake [3] | Drug uptake [4] | Molecule | IC50 [2] [µM] |
| --- | --- | --- | --- | --- | --- |
| 6.91 | 11 | – | – | CC(=O)N[C@@H](CC(C)C)C(=O)N[C@H](C(=O)N[C@@H](Cc1ccccc1)C(=O)N[C@@H](CCC(=O)O)C(=O)N[C@H]1CCCCNCc2ccc(cc2)CNCCCC[C@@H](C(=O)N[C@@H](CC(C)C)C(=O)N[C@H](C(=O)N[C@@H](CO)C(=O)N[C@@H](C)C(=O)N[C@@H](C)C(N)=O)[C@@H](C)O)NC(=O)[C@H](C)NC(=O)[C@H](Cc2c[nH]c3ccccc23)NC(=O)[C@H](Cc2ccc(O)cc2)NC1=O)[C@@H](C)O | > 160 |
| 11.3 | 11 | – | – | CC(=O)N[C@@H](CC(C)C)C(=O)N[C@H](C(=O)N[C@@H](Cc1ccccc1)C(=O)N[C@H]1CCCCNCc2ccccc2CNCCCC[C@@H](C(=O)N[C@@H](CCC(N)=O)C(=O)N[C@@H](CC(C)C)C(=O)N[C@H](C(=O)N[C@@H](CO)C(=O)N[C@@H](C)C(=O)N[C@@H](C)C(N)=O)[C@@H](C)O)NC(=O)[C@H](Cc2c[nH]c3ccccc23)NC(=O)[C@H](Cc2ccc(O)cc2)NC(=O)[C@H](Cc2c[nH]cn2)NC1=O)[C@@H](C)O | > 160 |
| 145 | 11 | – | – | CC(=O)N[C@@H](CC(C)C)C(=O)N[C@H](C(=O)N[C@@H](Cc1ccccc1)C(=O)N[C@@H](CCC(=O)O)C(=O)N[C@H]1CCCCNCc2ccccc2CNCCCC[C@@H](C(=O)N[C@@H](CC(C)C)C(=O)N[C@H](C(=O)N[C@@H](CO)C(=O)N[C@@H](C)C(=O)N[C@@H](C)C(N)=O)[C@@H](C)O)NC(=O)[C@H](C)NC(=O)[C@H](Cc2c[nH]c3ccccc23)NC(=O)[C@H](Cc2ccc(O)cc2)NC1=O)[C@@H](C)O | > 160 |
| > 160 | 11 | – | – | CC(=O)N[C@@H](CC(C)C)C(=O)N[C@H](C(=O)N[C@@H](Cc1ccccc1)C(=O)N[C@@H](CCC(=O)O)C(=O)N[C@H]1CCCCNCc2cccc(c2)CNCCCC[C@@H](C(=O)N[C@@H](CC(C)C)C(=O)N[C@H](C(=O)N[C@@H](CO)C(=O)N[C@@H](C)C(=O)N[C@@H](C)C(N)=O)[C@@H](C)O)NC(=O)[C@H](C)NC(=O)[C@H](Cc2c[nH]c3ccccc23)NC(=O)[C@H](Cc2ccc(O)cc2)NC1=O)[C@@H](C)O | 138 |
| > 160 | 11 | – | – | CSCC[C@H](NC(=O)[C@H](CC(C)C)NC(=O)[C@H](CCC(N)=O)NC(=O)[C@@H]1CCCCNCc2cccc(c2)CNCCCC[C@H](NC(=O)[C@H](Cc2ccccc2)NC(=O)[C@@H](NC(=O)[C@H](CC(C)C)NC(C)=O)[C@@H](C)O)C(=O)N[C@@H](CCC(=O)O)C(=O)N[C@@H](Cc2ccc(O)cc2)C(=O)N[C@@H](Cc2c[nH]c3ccccc23)C(=O)N1)C(=O)N[C@@H](CCC(N)=O)C(=O)N[C@@H](C)C(=O)N[C@@H](C)C(N)=O | 21.9 |
| > 160 | 11 | – | – | CC(=O)N[C@@H](CC(C)C)C(=O)N[C@H](C(=O)N[C@@H](Cc1ccccc1)C(=O)N[C@H]1CCCCNCC#CCNCCCC[C@@H](C(=O)N[C@@H](CCC(N)=O)C(=O)N[C@@H](CC(C)C)C(=O)N[C@H](C(=O)N[C@@H](CO)C(=O)N[C@@H](C)C(=O)N[C@@H](C)C(N)=O)[C@@H](C)O)NC(=O)[C@H](Cc2c[nH]c3ccccc23)NC(=O)[C@H](Cc2ccc(O)cc2)NC(=O)[C@H](Cc2c[nH]cn2)NC1=O)[C@@H](C)O | > 160 |
| 19.9 | 11 | – | – | CC(=O)N[C@@H](CC(C)C)C(=O)N[C@H](C(=O)N[C@@H](Cc1ccccc1)C(=O)N[C@@H](CCC(=O)O)C(=O)N[C@H]1CCCCNCC#CCNCCCC[C@@H](C(=O)N[C@@H](CC(C)C)C(=O)N[C@H](C(=O)N[C@@H](CO)C(=O)N[C@@H](C)C(=O)N[C@@H](C)C(N)=O)[C@@H](C)O)NC(=O)[C@H](C)NC(=O)[C@H](Cc2c[nH]c3ccccc23)NC(=O)[C@H](Cc2ccc(O)cc2)NC1=O)[C@@H](C)O | > 160 |
| > 160 | 11 | – | – | CC(=O)N[C@@H](CC(C)C)C(=O)N[C@H](C(=O)N[C@@H](Cc1ccccc1)C(=O)N[C@H]1CCCCNCc2ccc(cc2)CNCCCC[C@@H](C(=O)N[C@@H](CCC(N)=O)C(=O)N[C@@H](CC(C)C)C(=O)N[C@H](C(=O)N[C@@H](CO)C(=O)N[C@@H](C)C(=O)N[C@@H](C)C(N)=O)[C@@H](C)O)NC(=O)[C@H](Cc2c[nH]c3ccccc23)NC(=O)[C@H](Cc2ccc(O)cc2)NC(=O)[C@H](Cc2c[nH]cn2)NC1=O)[C@@H](C)O | > 160 |

The next lines start with the molecule.

| Molecule | IC50 (MCF7) [µM] | Activity [1] [%] | Drug uptake [3] | Drug uptake [4] | IC50 [2] [µM] |
| --- | --- | --- | --- | --- | --- |
| CC(=O)N[C@@H](CC(C)C)C(=O)N[C@H](C(=O)N[C@@H](Cc1ccccc1)C(=O)N[C@H]1CCCCNCc2ccc(cc2)CNCCCC[C@@H](C(=O)N[C@@H](CO)C(=O)N[C@@H](C)C(=O)N[C@@H](C)C(N)=O)NC(=O)[C@H](CC(C)C)NC(=O)[C@H](CCC(N)=O)NC(=O)[C@H](C)NC(=O)[C@H](Cc2c[nH]c3ccccc23)NC(=O)[C@H](Cc2ccc(O)cc2)NC(=O)[C@H](Cc2c[nH]cn2)NC1=O)[C@@H](C)O | > 160 | 11 | – | – | > 160 |
| CC(=O)N[C@@H](CC(C)C)C(=O)N[C@H](C(=O)N[C@@H](Cc1ccccc1)C(=O)N[C@H]1CCCCNCc2cccc(c2)CNCCCC[C@@H](C(=O)N[C@@H](CO)C(=O)N[C@@H](C)C(=O)N[C@@H](C)C(N)=O)NC(=O)[C@H](CC(C)C)NC(=O)[C@H](CCC(N)=O)NC(=O)[C@H](C)NC(=O)[C@H](Cc2c[nH]c3ccccc23)NC(=O)[C@H](Cc2ccc(O)cc2)NC(=O)[C@H](Cc2c[nH]cn2)NC1=O)[C@@H](C)O | > 160 | 11 | – | – | 52.9 |
| CSCC[C@H](NC(=O)[C@H](CC(C)C)NC(=O)[C@H](CCC(N)=O)NC(=O)[C@@H]1CCCCNCc2ccccc2CNCCCC[C@H](NC(=O)[C@H](Cc2ccccc2)NC(=O)[C@@H](NC(=O)[C@H](CC(C)C)NC(C)=O)[C@@H](C)O)C(=O)N[C@@H](CCC(=O)O)C(=O)N[C@@H](Cc2ccc(O)cc2)C(=O)N[C@@H](Cc2c[nH]c3ccccc23)C(=O)N1)C(=O)N[C@@H](CCC(N)=O)C(=O)N[C@@H](C)C(=O)N[C@@H](C)C(N)=O | > 160 | 11 | – | – | 105 |
| CC(=O)N[C@@H](CC(C)C)C(=O)N[C@H](C(=O)N[C@@H](Cc1ccccc1)C(=O)N[C@H]1CCCCNCc2ccccc2CNCCCC[C@@H](C(=O)N[C@@H](CO)C(=O)N[C@@H](C)C(=O)N[C@@H](C)C(N)=O)NC(=O)[C@H](CC(C)C)NC(=O)[C@H](CCC(N)=O)NC(=O)[C@H](C)NC(=O)[C@H](Cc2c[nH]c3ccccc23)NC(=O)[C@H](Cc2ccc(O)cc2)NC(=O)[C@H](Cc2c[nH]cn2)NC1=O)[C@@H](C)O | > 160 | 11 | – | – | > 160 |
| CC(C)C[C@H](NC(=O)CCNC(=O)c1ccc2c(c1)C(=O)OC21c2ccc(O)cc2Oc2cc(O)ccc21)C(=O)N[C@H](C(=O)N[C@@H](Cc1ccccc1)C(=O)N[C@H]1CCCCNCc2cccc(c2)CNCCCC[C@@H](C(=O)N[C@@H](CCC(N)=O)C(=O)N[C@@H](CC(C)C)C(=O)N[C@H](C(=O)N[C@@H](CO)C(=O)N[C@@H](C)C(=O)N[C@@H](C)C(N)=O)[C@@H](C)O)NC(=O)[C@H](Cc2c[nH]c3ccccc23)NC(=O)[C@H](Cc2ccc(O)cc2)NC(=O)[C@H](Cc2c[nH]cn2)NC1=O)[C@@H](C)O | – | – | Active | Active | – |
| CC(=O)N[C@@H](CC(C)C)C(=O)N[C@H](C(=O)N[C@@H](Cc1ccccc1)C(=O)N[C@H]1CCCCNCC#CCNCCCC[C@@H](C(=O)N[C@@H](CO)C(=O)N[C@@H](C)C(=O)N[C@@H](C)C(N)=O)NC(=O)[C@H](CC(C)C)NC(=O)[C@H](CCC(N)=O)NC(=O)[C@H](C)NC(=O)[C@H](Cc2c[nH]c3ccccc23)NC(=O)[C@H](Cc2ccc(O)cc2)NC(=O)[C@H](Cc2c[nH]cn2)NC1=O)[C@@H](C)O | > 160 | 11 | – | – | > 160 |
| CSCC[C@H](NC(=O)[C@H](CC(C)C)NC(=O)[C@H](CCC(N)=O)NC(=O)[C@@H]1CCCCNCC#CCNCCCC[C@H](NC(=O)[C@H](Cc2ccccc2)NC(=O)[C@@H](NC(=O)[C@H](CC(C)C)NC(C)=O)[C@@H](C)O)C(=O)N[C@@H](CCC(=O)O)C(=O)N[C@@H](Cc2ccc(O)cc2)C(=O)N[C@@H](Cc2c[nH]c3ccccc23)C(=O)N1)C(=O)N[C@@H](CCC(N)=O)C(=O)N[C@@H](C)C(=O)N[C@@H](C)C(N)=O | 112 | 11 | – | – | > 160 |
| CSCC[C@H](NC(=O)[C@H](CC(C)C)NC(=O)[C@H](CCC(N)=O)NC(=O)[C@@H]1CCCCNCc2ccc(cc2)CNCCCC[C@H](NC(=O)[C@H](Cc2ccccc2)NC(=O)[C@@H](NC(=O)[C@H](CC(C)C)NC(=O)CCNC(=O)c2ccc3c(c2)C(=O)OC32c3ccc(O)cc3Oc3cc(O)ccc32)[C@@H](C)O)C(=O)N[C@@H](CCC(=O)O)C(=O)N[C@@H](Cc2ccc(O)cc2)C(=O)N[C@@H](Cc2c[nH]c3ccccc23)C(=O)N1)C(=O)N[C@@H](CCC(N)=O)C(=O)N[C@@H](C)C(=O)N[C@@H](C)C(N)=O | – | – | Not_active | – | – |
| Ac-LTFEHYWAQLTS-NH2 | – | 11 | – | – | – |
